Our source for the IC50 values is US20260103465A1, “GLYCOGEN SYNTHASE KINASE 3 INHIBITORS AND USES THEREOF” (The Broad Institute, Inc., priority 2023, published 2026).

Experiment [1] deals with T1, GSK3a (GST-full length GSK3a) (Homo sapiens, UniProt P49840).
T1 construct: GST-full length GSK3a [SignalChem G08-10G]; purchased SignalChem G08-10G
Description: GSK3a TR-FRET kinase inhibition assay. In kind it is biochemical. The procedure:
(§1) TR-FRET assay was performed in a white, 384 well, low volume, flat bottom plate (Grenier). After a 30 minute preincubation in assay buffer with the indicated concentration of compound, the kinase activity was initiated by the addition of the substrates. 1 nM GSK3a (GST-full length GSK3a [SignalChem G08-10G]) or 1 nM GSK3b (GST-full length GSK3b: [SignalChem G08-9G]) were then incubated at ambient temperature for 100 minutes in 10 μl of 50 mM Tris, pH 7.5, 20 mM MgCl2, 0.05 mM DTT, 100 μg/ml BSA and 1% DMSO, with 200 nM biotinylated peptide substrate (biotinylated and S645 phosphorylated glycogen synthase 631-650) and ATP (e.g., at 2 μM, 4 μM, 10 μM, 100 μM, or 1 mM). The kinase activity was quenched with 2 μl of 250 mM EDTA. A 10 μl volume of 40 nM Strepavidin-d2, 2 nM […] antibody in TR-FRET Detection Buffer (Invitrogen) was then added. After 60 min at room temperature the plate was read on Envision plate reader using Ex: 340 nm, Em: 615 nm and […]. The normalized 665/615 Signal ratio versus log compound concentration was analyzed by XLFIT to yield IC50 values.
(In TR-FRET formats the signal depends on donor and acceptor labels being close together.)

In experiment [2] the target is T2, GSK3b (GST-full length GSK3b) (Homo sapiens, UniProt P49841).
T2 construct: GST-full length GSK3b: [SignalChem G08-9G]; purchased SignalChem G08-9G
T2 sequence (P49841 whole entry): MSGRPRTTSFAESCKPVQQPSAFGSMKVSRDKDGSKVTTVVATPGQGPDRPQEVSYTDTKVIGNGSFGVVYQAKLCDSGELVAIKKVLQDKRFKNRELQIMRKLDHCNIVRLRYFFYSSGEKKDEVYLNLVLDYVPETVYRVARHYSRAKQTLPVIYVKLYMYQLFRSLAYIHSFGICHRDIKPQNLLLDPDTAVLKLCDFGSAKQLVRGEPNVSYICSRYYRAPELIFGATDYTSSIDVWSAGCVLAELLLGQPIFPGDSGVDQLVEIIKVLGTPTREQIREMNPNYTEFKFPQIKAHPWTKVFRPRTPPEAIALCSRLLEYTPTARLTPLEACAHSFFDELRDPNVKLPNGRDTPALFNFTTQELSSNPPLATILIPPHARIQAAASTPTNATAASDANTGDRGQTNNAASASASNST
Description: GSK3b TR-FRET kinase inhibition assay. In kind it is biochemical. As to the method:
as §1

[3] abbreviates: 1 mM ATP, Table 5, read-out: GSK3α TR-FRET 1 mM ATP Average IC50.
[4] abbreviates: 1 mM ATP, Table 5, read-out: GSK3β TR-FRET 1 mM ATP Average IC50.
Where [5] appears, read: 100 μM ATP, read-out: GSK3a 100 μM ATP Average IC50.
Where [6] appears, read: 100 μM ATP, read-out: GSK3b 100 μM ATP Average IC50.
The mark [7] stands for this setting: 1 mM ATP, Table 3, read-out: GSK3a TR-FRET 1 mM ATP Average IC50.
The mark [8] stands for this setting: 1 mM ATP, Table 3, read-out: GSK3b TR-FRET 1 mM ATP Average IC50.

Read-outs that look alike come from different tables or passages of the source. Where only a bound is given, the exact number is not on record here.

T1 sequence (P49840 whole entry): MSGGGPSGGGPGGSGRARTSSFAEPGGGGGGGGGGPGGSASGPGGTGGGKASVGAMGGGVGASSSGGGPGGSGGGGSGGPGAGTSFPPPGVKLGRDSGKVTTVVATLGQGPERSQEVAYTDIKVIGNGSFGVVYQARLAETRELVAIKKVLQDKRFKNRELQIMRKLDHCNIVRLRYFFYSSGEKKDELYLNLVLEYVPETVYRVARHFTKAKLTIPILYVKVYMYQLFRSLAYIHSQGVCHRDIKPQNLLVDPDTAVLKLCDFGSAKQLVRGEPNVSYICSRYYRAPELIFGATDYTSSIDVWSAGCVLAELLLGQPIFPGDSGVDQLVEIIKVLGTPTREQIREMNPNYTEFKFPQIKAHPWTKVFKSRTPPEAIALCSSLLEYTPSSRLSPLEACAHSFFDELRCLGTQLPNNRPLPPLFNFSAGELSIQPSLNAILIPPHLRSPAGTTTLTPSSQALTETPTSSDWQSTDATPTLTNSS

For orientation: IC50 means the concentration needed to halve the response being measured. On to `CC(C)Oc1cccc(C2(C)C3=C(CC(C)(C)CC3=O)Nc3ncc4c(cnn4C)c32)c1` (single isomer, unassigned) [645A], for which the IC50 in experiment [1] (setting [3]) and in experiment [2] (setting [4]) was 5 to 20 µM each time.
As to `CC(C)Oc1cccc(C2(C)C3=C(CC(C)(C)CC3=O)Nc3ncc4c(cnn4C)c32)c1` (single isomer, unassigned) [645B], the IC50 in experiment [1] (setting [3]) is 5 to 20 µM; in experiment [2] (setting [4]), 1 to 5 µM.
The like results for `CC1(C)CC(=O)C2=C(C1)Nc1ncc(C(F)(F)F)cc1C2(C)c1cccc(C(F)F)c1` (single isomer, unassigned) [646A] were, in that order, 5 to 20 µM and 5 to 20 µM.
Regarding `CC1(C)CC(=O)C2=C(C1)Nc1ncc(C(F)(F)F)cc1C2(C)c1cccc(C(F)F)c1` (single isomer, unassigned) [646B], the figures for the IC50 in experiment [1] (setting [3]) and in experiment [2] (setting [4]) were 1 to 5 µM and 0.1 to 1 µM, respectively.
On the same counts, the results for `CC1(C)CC2=C(C(=O)N1)C(C)(c1cccc(S(C)(=O)=O)c1)c1cc(C3CC3)cnc1N2` (single isomer, unassigned) [647A] are 0.1 to 1 µM and 0.1 to 1 µM.
On to `CC1(C)CC2=C(C(=O)N1)C(C)(c1cccc(S(C)(=O)=O)c1)c1cc(C3CC3)cnc1N2` (single isomer, unassigned) [647B], for which the IC50 in experiment [1] (setting [3]) and in experiment [2] (setting [4]) was 5 to 20 µM throughout.
With `CC(C)Oc1cccc(C2(C)C3=C(CC(C)(C)CC3=O)Nc3ncc(C(F)(F)F)cc32)c1` (single isomer, unassigned) [648A], the IC50 in experiment [1] (setting [3]) was 5 to 20 µM; in experiment [2] (setting [4]) it was 1 to 5 µM.
The like results for `CC(C)Oc1cccc(C2(C)C3=C(CC(C)(C)CC3=O)Nc3ncc(C(F)(F)F)cc32)c1` (single isomer, unassigned) [648B] were, in that order, 1 to 5 µM and 0.1 to 1 µM.
As for `Cn1ncc2c3c(ncc21)NC1=C(C(=O)CC(C)(C)C1)C3(C)c1cccc(S(C)(=O)=O)c1` (single isomer, unassigned) [649A], the IC50 lay in the range of 5 to 20 µM in experiment [1] (setting [3]) and 1 to 5 µM in experiment [2] (setting [4]).
On the same counts, the results for `Cn1ncc2c3c(ncc21)NC1=C(C(=O)CC(C)(C)C1)C3(C)c1cccc(S(C)(=O)=O)c1` (single isomer, unassigned) [649B] are 5 to 20 µM and 5 to 20 µM.
The like results for `CC(C)Oc1cccc(C2(C)C3=C(CC(C)(C)CC3=O)Nc3ncc(C(F)F)c(C#N)c32)c1` (single isomer, unassigned) [650A] were, in that order, 5 to 20 µM and 1 to 5 µM.
On the same counts, the results for `CC(C)Oc1cccc(C2(C)C3=C(CC(C)(C)CC3=O)Nc3ncc(C(F)F)c(C#N)c32)c1` (single isomer, unassigned) [650B] are 0.1 to 1 µM and 0.1 to 1 µM.
As for `CC1(C)CC2=C(C(=O)N1)C(C)(c1cccc(S(C)(=O)=O)c1)c1cc(C(F)(F)F)cnc1N2` (single isomer, unassigned) [651B], the IC50 in experiment [1] (setting [3]) and in experiment [2] (setting [4]) was 0.1 to 1 µM in each case.
For `CC1(C)CC(=O)C2=C(C1)Nc1ncccc1C2(C)c1cccc(N(CC2CC2)c2ncccn2)c1` (single isomer, unassigned) [652A], the IC50 in experiment [1] (setting [3]) and in experiment [2] (setting [4]) was 5 to 20 µM throughout.
As for `CC1(C)CC(=O)C2=C(C1)Nc1ncccc1C2(C)c1cccc(N(CC2CC2)c2ncccn2)c1` (single isomer, unassigned) [652B], the IC50 in experiment [1] (setting [3]) was not above 0.1 µM; in experiment [2] (setting [4]), 5 to 20 µM.
The like results for `CC1(C)CC(=O)C2=C(C1)Nc1ncc(F)cc1C2(C)c1cccc(-c2ccncc2CC(F)(F)F)c1` (single isomer, unassigned) [653A] were, in that order, 1 to 5 µM and 1 to 5 µM.
As for `CC1(C)CC(=O)C2=C(C1)Nc1ncc(F)cc1C2(C)c1cccc(-c2ccncc2CC(F)(F)F)c1` (single isomer, unassigned) [653B], the IC50 in experiment [1] (setting [3]) and in experiment [2] (setting [4]) was not above 0.1 µM in each case.
With `CC1(C)CC(=O)C2=C(C1)Nc1ncc(F)c(C#N)c1C2(C)c1cccc(-c2ccncc2CC(F)(F)F)c1` (single isomer, unassigned) [656A], the IC50 in experiment [1] (setting [3]) and in experiment [2] (setting [4]) was 0.1 to 1 µM throughout.
As for `CC1(C)CC(=O)C2=C(C1)Nc1ncc(F)c(C#N)c1C2(C)c1cccc(-c2ccncc2CC(F)(F)F)c1` (single isomer, unassigned) [656B], the IC50 in experiment [1] (setting [3]) and in experiment [2] (setting [4]) was not above 0.1 µM each time.
Consider `CC1(C)CC(=O)C2=C(C1)Nc1ncc(I)c(Br)c1C2(C)c1ccccc1` (single isomer, unassigned) [657A], for which the IC50 in experiment [1] (setting [3]) and in experiment [2] (setting [4]) was 5 to 20 µM in each case.
Take `CC1(C)CC(=O)C2=C(C1)Nc1ncc(I)c(Br)c1C2(C)c1ccccc1` (single isomer, unassigned) [657B]: the IC50 in experiment [1] (setting [3]) fell in the range of 5 to 20 µM; in experiment [2] (setting [4]), 1 to 5 µM.
As for `CC1(C)CC(=O)C2=C(C1)Nc1ncccc1C2(C)c1ccccc1` (single isomer, unassigned) [Compound 101B], the IC50 in experiment [1] (10 μM ATP, read-out: GSK3a 10 μM ATP Average IC50) lay within 5 to 20 µM; in experiment [1] (setting [5]) it was 20 to 60 µM; in experiment [2] (10 μM ATP, read-out: GSK3b 10 μM ATP Average IC50), 1 to 5 µM; in experiment [2] (setting [6]) it was 20 to 60 µM.
For `Cc1ccnc2c1C(C)(c1ccccc1)C1=C(CC(C)(C)CC1=O)N2` (single isomer, unassigned) [Compound 104A], the IC50 in experiment [1] (setting [5]) is not above 0.1 µM; in experiment [1] (setting [7]), 1 to 5 µM; in experiment [2] (setting [6]), 0.1 to 1 µM; in experiment [2] (setting [8]) it was 1 to 5 µM.
For the molecule `CC1(C)CC(=O)C2=C(C1)Nc1nccc(F)c1C2(C)c1ccccc1` (single isomer, unassigned) [Compound 105B], the 50% inhibitory concentration (IC50) in experiment [1] (setting [7]) and in experiment [2] (setting [8]) was 1 to 5 µM in each case.
As to `CC1(C)CC(=O)C2=C(C1)Nc1ncc(C#N)cc1C2(C)c1ccccc1` (single isomer, unassigned) [Compound 109A], the IC50 in experiment [1] (setting [7]) and in experiment [2] (setting [8]) was 1 to 5 µM each time.
With `CC1(C)CC(=O)C2=C(C1)Nc1ncc(C#N)cc1C2(C)c1ccccc1` (single isomer, unassigned) [Compound 109B], the IC50 in experiment [1] (setting [7]) and in experiment [2] (setting [8]) was 5 to 20 µM throughout.
Regarding `C=Cc1ccnc2c1C(C)(c1ccccc1)C1=C(CC(C)(C)CC1=O)N2` (single isomer, unassigned) [Compound 111A], the IC50 in experiment [1] (setting [5]) was not above 0.1 µM; in experiment [1] (setting [7]), 0.1 to 1 µM; in experiment [2] (setting [6]), not above 0.1 µM; in experiment [2] (setting [8]) it was 0.1 to 1 µM.
For the molecule `CCc1ccnc2c1C(C)(c1ccccc1)C1=C(CC(C)(C)CC1=O)N2` (single isomer, unassigned) [Compound 112A], the IC50 in experiment [1] (setting [5]) was not above 0.1 µM; in experiment [1] (setting [7]) it was 1 to 5 µM; in experiment [2] (setting [6]) it was not above 0.1 µM; in experiment [2] (setting [8]), 1 to 5 µM.
Turning to `CCc1cnc2c(c1)C(C)(c1ccccc1)C1=C(CC(C)(C)CC1=O)N2` (single isomer, unassigned) [Compound 113A], the IC50 in experiment [1] (setting [5]) lay within 1 to 5 µM; in experiment [2] (setting [6]), 0.1 to 1 µM; in experiment [2] (setting [8]), 1 to 5 µM.
For `CC1(C)CC(=O)C2=C(C1)Nc1ncc(F)c(F)c1C2(C)c1ccccc1` (single isomer, unassigned) [Compound 116B], the IC50 in experiment [1] (setting [7]) and in experiment [2] (setting [8]) was 0.1 to 1 µM in each case.
With `CC1(C)CC(=O)C2=C(C1)Nc1ncc(C3CC3)cc1C2(C)c1ccccc1` (single isomer, unassigned) [Compound 117A], the IC50 in experiment [1] (setting [5]) is 0.1 to 1 µM; in experiment [1] (setting [7]), 5 to 20 µM; in experiment [2] (setting [6]), 0.1 to 1 µM; in experiment [2] (setting [8]), 1 to 5 µM.
Take `CC1(C)CC(=O)C2=C(C1)Nc1ncc3c(c1C2(C)c1ccccc1)CCC3` (single isomer, unassigned) [Compound 118B]: the IC50 in experiment [1] (setting [7]) and in experiment [2] (setting [8]) was 1 to 5 µM throughout.
